This note sets out measurements from PubChem BioAssay AID192 (DTP/NCI, 2004).

Several values for one entry are separate records, joined by “and”; a condition that tells them apart may be missing. Identical values can stand only once. Inconclusive results and toxic doses are left out.

The subject of this test is BDF1 mice, B16 melanoma ip, median survival T/C. In words: NCI In Vivo Anticancer Drug Screen. Data for tumor model B16 Melanoma (intraperitoneal) in B6D2F1 (BDF1) mice. The following applies: endpoint: median survival time, higher = longer survival. The procedure, abridged:
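The ratio T/C compares compound-treated mice with vehicle-treated controls, using survival or tumor size as the endpoint in a transplantable tumor model.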

The mark [1] stands for this setting: dose: 6.25 mg/kg/injection, schedule: Q01DX009 (ip), vehicle: saline.
Setting [2] is: dose: 12.5 mg/kg/injection, schedule: Q01DX009 (ip), vehicle: saline.
[3] abbreviates: dose: 25.0 mg/kg/injection, schedule: Q01DX009 (ip), vehicle: saline.
The mark [4] stands for this setting: dose: 100.0 mg/kg/injection, schedule: Q01DX009 (ip), vehicle: Klucel (hydroxypropylcellulose) (HPC).
Setting [5] is: dose: 200.0 mg/kg/injection, schedule: Q01DX009 (ip), vehicle: Klucel (hydroxypropylcellulose) (HPC).
Setting [6] is: dose: 400.0 mg/kg/injection, schedule: Q01DX009 (ip), vehicle: Klucel (hydroxypropylcellulose) (HPC).
Setting [7] is: dose: 100.0 mg/kg/injection, schedule: Q01DX009 (ip), vehicle: saline with Tween-80.
Where [8] appears, read: dose: 200.0 mg/kg/injection, schedule: Q01DX009 (ip), vehicle: saline with Tween-80.
The mark [9] stands for this setting: dose: 400.0 mg/kg/injection, schedule: Q01DX009 (ip), vehicle: saline with Tween-80.
The mark [10] stands for this setting: dose: 12.5 mg/kg/injection, schedule: Q01DX009 (ip), vehicle: saline with Tween-80.
The mark [11] stands for this setting: dose: 25.0 mg/kg/injection, schedule: Q01DX009 (ip), vehicle: saline with Tween-80.
Setting [12] is: dose: 50.0 mg/kg/injection, schedule: Q01DX009 (ip), vehicle: saline with Tween-80.
The mark [13] stands for this setting: dose: 6.25 mg/kg/injection, schedule: Q01DX009 (ip), vehicle: saline with Tween-80.

`O=C(O)COc1ccc(OCC(=O)O)cc1`: the T/C (dose: 0.75 mg/kg/injection, schedule: Q01DX009 (ip), vehicle: Klucel (hydroxypropylcellulose) (HPC)) is 89 % of control and the T/C (dose: 1.5 mg/kg/injection, schedule: Q01DX009 (ip), vehicle: Klucel (hydroxypropylcellulose) (HPC)) is 89 % of control.
Regarding `O=C(NC(CSCc1ccccc1)C(=O)Oc1ccc([N+](=O)[O-])cc1)OCc1ccccc1` (stereo unspecified), the T/C (dose: 25.0 mg/kg/injection, schedule: Q01DX009 (ip), vehicle: gum acacia) was 97 % of control.
For `C1=CC2C=CC12` (stereo unspecified), the T/C is, setting by setting: (dose: 50.0 mg/kg/injection, schedule: Q04DX003 (ip), vehicle: saline with Tween-80) 91 % of control; (dose: 100.0 mg/kg/injection, schedule: Q04DX003 (ip), vehicle: saline with Tween-80) 89 % of control.
Take `CN1CCC(OC2c3ccccc3CCc3ccccc32)CC1`: the T/C runs as follows: (dose: 3.12 mg/kg/injection, schedule: Q01DX009 (ip), vehicle: saline) 100 % of control; under setting [1], 104 % of control; under setting [2], 104 % of control; under setting [3], 97 % of control.
On to `N/C(=N\O)c1cn(C2OC(CO)C(O)C2O)c2ncnc(N)c12` (stereo unspecified), for which the T/C runs as follows: (dose: 1.0 mg/kg/injection, schedule: Q01DX009 (ip), vehicle: saline) 115 % of control; (dose: 2.0 mg/kg/injection, schedule: Q01DX009 (ip), vehicle: saline) 117 % of control; (dose: 4.0 mg/kg/injection, schedule: Q01DX009 (ip), vehicle: saline) 121 % of control.
For the compound `CC[P+](CC)(CC)c1ccccc1`, the T/C is, setting by setting: under setting [1], 101 % of control; under setting [2], 110 % of control; under setting [3], 111 % of control.
Take `O=NN(CCCl)C(=O)NCCO`: the T/C (dose: 3.12 mg/kg/injection, schedule: Q01DX009 (ip), vehicle: water) was 176 % of control.
For `C1CNCCN1`, the T/C is, setting by setting: (dose: 25.0 mg/kg/injection, schedule: Q01DX009 (ip), vehicle: suspension in saline) 93 % of control; (dose: 50.0 mg/kg/injection, schedule: Q01DX009 (ip), vehicle: suspension in saline) 102 % of control; (dose: 100.0 mg/kg/injection, schedule: Q01DX009 (ip), vehicle: suspension in saline) 106 % of control; (dose: 200.0 mg/kg/injection, schedule: Q01DX009 (ip), vehicle: suspension in saline) 90 % of control.
Regarding `Cc1cc([N+](=O)[O-])c(N)c([N+](=O)[O-])c1`, the T/C by setting is: under setting [4], 100 % of control; under setting [5], 93 % of control; under setting [6], 100 % of control.
For the compound `O=C(Cl)COc1cccc2ccccc12`, the T/C is 103 % of control under setting [4], 110 % of control under setting [5] and 106 % of control under setting [6].
Turning to `COc1cc([N+](=O)[O-])c2ncccc2c1`, the T/C was 115 % of control under setting [4] and 110 % of control under setting [5].
Turning to `COC(=O)/C=C/NC(=O)c1ccccc1C(=O)OC`, the T/C by setting is: (dose: 100.0 mg/kg/injection, schedule: Q04DX003 (ip), vehicle: Klucel (hydroxypropylcellulose) (HPC)) 86 % of control; under setting [5], 97 % of control; (dose: 200.0 mg/kg/injection, schedule: Q04DX003 (ip), vehicle: Klucel (hydroxypropylcellulose) (HPC)) 86 % of control.
Regarding `Cn1c(O)c(/C=C2\C=Nc3ccccc32)n(C)c1=N`, the T/C runs as follows: (dose: 12.5 mg/kg/injection, schedule: Q01DX009 (ip), vehicle: Klucel (hydroxypropylcellulose) (HPC)) 96 % of control; (dose: 25.0 mg/kg/injection, schedule: Q01DX009 (ip), vehicle: Klucel (hydroxypropylcellulose) (HPC)) 100 % of control; (dose: 50.0 mg/kg/injection, schedule: Q01DX009 (ip), vehicle: Klucel (hydroxypropylcellulose) (HPC)) 101 % of control; under setting [4], 97 % of control.
Consider `S=C(NC1CCCCC1)NC1CCCCC1`, for which the T/C reads like this: under setting [7], 95 % of control; under setting [8], 114 % of control; under setting [9], 90 % of control.
Take `Cc1cc2nc(Cc3ccccc3)[nH]c2cc1C`: the T/C is, setting by setting: under setting [10], 102 % of control; under setting [11], 105 % of control; under setting [12], 94 % of control.
Regarding `CC(C)[NH-].CC(C)[NH-].O.O.[Cl][Pt+2][Cl]`, the T/C runs as follows: (dose: 3.12 mg/kg/injection, schedule: Q01DX009 (ip), vehicle: dextrose) 118 % of control; (dose: 3.13 mg/kg/injection, schedule: Q01DX009 (ip), vehicle: dextrose) 122 % of control; (dose: 12.5 mg/kg/injection, schedule: Q01DX009 (ip), vehicle: dextrose) 164 % of control and 168 % of control.
Regarding `CCc1cc(O)cc(C)c1Cl`, the T/C runs as follows: under setting [10], 95 % of control; under setting [11], 110 % of control; under setting [12], 99 % of control and 106 % of control.
As to `CC(=O)[O][Hg][c]1cc(-c2ccc(N=Nc3c(S(=O)(=O)O)cc4cccc(N)c4c3O)cc2)ccc1N=Nc1c(S(=O)(=O)O)cc2cccc(N)c2c1O`, the T/C reads like this: (dose: 0.75 mg/kg/injection, schedule: Q01DX009 (ip), vehicle: saline with Tween-80) 95 % of control; (dose: 1.5 mg/kg/injection, schedule: Q01DX009 (ip), vehicle: saline with Tween-80) 90 % of control; (dose: 1.5 mg/kg/injection, schedule: Q04DX003 (ip), vehicle: saline with Tween-80) 102 % of control; (dose: 3.0 mg/kg/injection, schedule: Q04DX003 (ip), vehicle: saline with Tween-80) 86 % of control.
For the compound `NNC(=O)c1cccc(C(=O)NN)c1`, the T/C was 97 % of control under setting [7], 100 % of control under setting [8] and 97 % of control under setting [9].
Take `CCOC(=O)c1ccc(NCC#N)cc1`: the T/C was 94 % of control under setting [7], 97 % of control under setting [8] and 105 % of control under setting [9].
`CCC1OC2(C)C(O)C(/C=C/C=C/C=C/c3oc(=O)cc(OC)c3C)OC1(C)C2OC(C)=O` (stereo unspecified): the T/C is, setting by setting: (dose: 0.5 mg/kg/injection, schedule: Q01DX009 (ip), vehicle: Klucel (hydroxypropylcellulose) (HPC)) 94 % of control; (dose: 1.0 mg/kg/injection, schedule: Q01DX009 (ip), vehicle: Klucel (hydroxypropylcellulose) (HPC)) 93 % of control; (dose: 2.0 mg/kg/injection, schedule: Q01DX009 (ip), vehicle: Klucel (hydroxypropylcellulose) (HPC)) 94 % of control.
In the case of `CCCC/C=C/CCCCCCCC(=O)OCCCCCCCCCCCCCCCC`, the T/C runs as follows: under setting [10], 100 % of control; under setting [11], 101 % of control; under setting [12], 94 % of control; under setting [7], 94 % of control.
For the compound `CCCCn1c(O)c(C=N)c(=O)n(CCCC)c1=O`, the T/C was 109 % of control (dose: 3.12 mg/kg/injection, schedule: Q01DX009 (ip), vehicle: saline with Tween-80) and 97 % of control under setting [13].
For `Clc1ncnc2nc[nH]c12`, the T/C is, setting by setting: (dose: 50.0 mg/kg/injection, schedule: Q01DX009 (ip), vehicle: saline sonified) 92 % of control; under setting [12], 86 % of control; (dose: 100.0 mg/kg/injection, schedule: Q01DX009 (ip), vehicle: saline sonified) 97 % of control; under setting [7], 97 % of control; (dose: 200.0 mg/kg/injection, schedule: Q01DX009 (ip), vehicle: saline sonified) 110 % of control.
As to `O=C(Nc1cc(C(F)(F)F)ccc1Cl)c1ccc(Cl)cc1Cl`, the T/C runs as follows: under setting [7], 88 % of control; under setting [8], 88 % of control.
`NC(N)=NC(N)=Nc1ccc(-c2ccc(N=C(N)N=C(N)N)cc2)cc1`: the T/C under setting [13] is 102 % of control and the T/C under setting [10] was 96 % of control.
In the case of `CC1=CCC(C(C)(C)c2ccc(O)cc2)CC1` (stereo unspecified), the T/C runs as follows: under setting [13], 96 % of control; under setting [10], 105 % of control; under setting [11], 102 % of control and 106 % of control.
With `Nc1ccc(S(=O)(=O)Nc2cccc3ccccc23)cc1`, the T/C by setting is: under setting [4], 100 % of control; under setting [5], 100 % of control; under setting [6], 96 % of control.
`O=C(CCCN1CCN(c2ccccn2)CC1)c1ccc(F)cc1`: the T/C was 93 % of control (dose: 0.19 mg/kg/injection, schedule: Q01DX009 (ip), vehicle: Klucel (hydroxypropylcellulose) (HPC)); 89 % of control (dose: 0.39 mg/kg/injection, schedule: Q01DX009 (ip), vehicle: Klucel (hydroxypropylcellulose) (HPC)); 110 % of control (dose: 0.78 mg/kg/injection, schedule: Q01DX009 (ip), vehicle: Klucel (hydroxypropylcellulose) (HPC)); 92 % of control (dose: 1.56 mg/kg/injection, schedule: Q01DX009 (ip), vehicle: Klucel (hydroxypropylcellulose) (HPC)); 88 % of control (dose: 3.12 mg/kg/injection, schedule: Q01DX009 (ip), vehicle: Klucel (hydroxypropylcellulose) (HPC)).
